Measured values: the NIST ThermoML archive (doi:10.1021/je049605r)
± gives the expanded uncertainty stated by the source.

How the values were obtained:
[1] = 293.2 K; 101.33 kPa; Liquid
[2] = refractive index (Na D-line) (dimensionless); settings: 293.2 K; 101.33 kPa; Liquid; Standard Abbe refractometry

Row | Structure (SMILES) | mass density [1] | refractive index [2]
1 | OCC1CCCO1 (stereo unspecified) [2-tetrahydrofurylmethanol] | 1055.1 ± 0.6 kg/m3 | 1.4525 ± 0.0007
2 | Clc1ccccc1 [chlorobenzene] | 1106.2 ± 0.4 kg/m3 | 1.5244 ± 0.0007
3 | CC(=O)OC1CCCCC1 [cyclohexyl ethanoate] | 970.3 ± 0.3 kg/m3 | 1.441 ± 0.0007
4 | C1CCCCC1 [cyclohexane] | 779.3 ± 0.6 kg/m3 | 1.4269 ± 0.0007
5 | OC1CCCCC1 [cyclohexanol] | 963.5 ± 9.6 kg/m3 | 1.4648 ± 0.0007
6 | O [water] | – | 1.3326 ± 0.0007
